Measured values reported in patent US10294202B2, “Pyrrolidinones as herbicides” (FMC Corporation, priority 2013, dated 2019).

Legend:
soybean = experiment: Test E preemergence herbicide test; type: in vivo, Glycine max; design: key: 0 = no effect, 100 = complete control
Summary of the method: (§1)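 Seeds sown in silt loam soil received preemergence treatment with compound in a non-phytotoxic solvent mixture containing surfactant. After 21 days in the greenhouse, plants were visually rated against untreated controls on a 0 (no effect) to 100 (complete control) scale.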

foxtail, giant = experiment: Test E preemergence herbicide test; type: in vivo, Setaria faberii; design: key: 0 = no effect, 100 = complete control
Summary of the method: as §1

lambsquarters = experiment: Test E preemergence herbicide test; type: in vivo, Chenopodium album; design: key: 0 = no effect, 100 = complete control
Summary of the method: as §1

barnyardgrass = experiment: Test E preemergence herbicide test; type: in vivo, Echinochloa crus-galli; design: key: 0 = no effect, 100 = complete control
Summary of the method: as §1

nightshade = experiment: Test C pre-/postemergence herbicide test; type: in vivo, Solanum ptycanthum; details: Preemergence
Source text: Seeds of plant species selected from blackgrass (Alopecurus myosuroides), ryegrass, Italian (Italian ryegrass, Lolium multiflorum), wheat (winter wheat, Triticum aestivum), galium (catchweed bedstraw, Galium aparine), corn (Zea mays), crabgrass, large (large crabgrass, Digitaria sanguinalis), foxtail, giant (giant foxtail, Setaria faberii), johnsongrass (Sorghum halepense), lambsquarters (Chenopodium album), morningglory (Ipomoea coccinea), nutsedge, yellow (yellow nutsedge, Cyperus esculentus), pigweed (Amaranthus retroflexus), ragweed (common ragweed, Ambrosia elatior), soybean (Glycine max), barnyardgrass (Echinochloa crus-galli), oilseed rape (Brassica napus), waterhemp (common waterhemp, Amaranthus rudis), kochia (Kochia scoparia), oat, wild (wild oat, Avena fatua), surinam grass (Brachiaria decumbens), foxtail, green (green foxtail, Setaria viridis), goosegrass (Eleusine indica), bromegrass, downy (downy bromegrass, Bromus tectorum), nightshade (eastern black nightshade, Solanum ptycanthum), cocklebur (common cocklebur, Xanthium strumarium), cupgrass, woolly (woolly cupgrass, Eriochloa villosa), bermudagrass (Cynodon dactylon), sunflower, (common oilseed sunflower, Helianthus annuus), Russian thistle (Salsola kali) and velvetleaf (Abutilon theophrasti) were planted into a blend of loam soil and sand and treated preemergence with test chemicals formulated in a non-phytotoxic solvent mixture which included a surfactant. At the same time, plants selected from these crop and weed species and also barley (winter barley, Hordeum vulgare), […]), chickweed (common chickweed, Stellaria media), deadnettle (henbit deadnettle, Lamium amplexicaule), and canarygrass (littleseed canarygrass, Phalaris minor) were planted in pots containing Redi-Earth® planting medium (Scotts Company, 14111 Scottslawn Road, Marysville, Ohio 43041) comprising spaghnum peat moss, vermiculite, wetting agent and starter nutrients and treated with postemergence applications of test chemicals formulated in the same manner. Plants ranged in height from 2 to 18 cm (1- to 4-leaf stage) for postemergence treatments. Treated plants and controls were maintained in a greenhouse for 13 to 15 days, after which time all species were compared to controls and visually evaluated. Plant response ratings, summarized in Table C, are based on a scale of 0 to 100 where 0 is no effect and 100 is complete control. A dash (-) response means no test result.

cocklebur = experiment: Test C pre-/postemergence herbicide test; type: in vivo, Xanthium strumarium
Summary of the method: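 Two application timings ran in parallel with identically formulated test chemicals (non-phytotoxic solvent, surfactant included): spray on seeded loam–sand soil, and spray on emerged plants 2 to 18 cm high. Evaluation at 13 to 15 days compared each species with controls, rated from 0 up to 100.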

galium = experiment: Test D pre-/postemergence herbicide test; type: in vivo, Galium aparine; details: Postemergence, Galium, scale 0 to 100
Summary of the method: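 Plants were sown in silt loam for preemergence spraying or in a peat moss/vermiculite mix for postemergence spraying at 2 to 18 cm height. Formulations used a non-phytotoxic solvent mixture with a surfactant. After 7 to 21 days, responses were scored visually from 0 (no effect) to 100 (complete control).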

[1] = Preemergence, 62 g ai/ha, scale 0 to 100
[2] = Preemergence, 31 g ai/ha, scale 0 to 100 (0 no effect, 100 complete control)
[3] = Preemergence, 250 g ai/ha, scale 0 to 100 (0 no effect, 100 complete control)

| Structure (SMILES) | Plant response rating, Soybean (soybean; 16 g ai/ha) | Plant response rating, Soybean (soybean; 31 g ai/ha) | Plant response rating, Soybean (soybean; 62 g ai/ha) | Plant response rating, Soybean (soybean; 125 g ai/ha) | Plant response rating, Soybean (soybean; 250 g ai/ha) | Plant response rating, Foxtail, Giant (foxtail, giant; 16 g ai/ha) | Plant response rating, Foxtail, Giant (foxtail, giant; 31 g ai/ha) | Plant response rating, Foxtail, Giant (foxtail, giant; 62 g ai/ha) | Plant response rating, Foxtail, Giant (foxtail, giant; 125 g ai/ha) | Plant response rating, Foxtail, Giant (foxtail, giant; 250 g ai/ha) | Plant response rating, Lambsquarters (lambsquarters; 16 g ai/ha) | Plant response rating, Lambsquarters (lambsquarters; 31 g ai/ha) | Plant response rating, Lambsquarters (lambsquarters; 62 g ai/ha) | Plant response rating, Lambsquarters (lambsquarters; 125 g ai/ha) | Plant response rating, Lambsquarters (lambsquarters; 250 g ai/ha) | Plant response rating, Barnyardgrass (barnyardgrass; 16 g ai/ha) | Plant response rating, Barnyardgrass (barnyardgrass; 31 g ai/ha) | Plant response rating, Barnyardgrass (barnyardgrass; 62 g ai/ha) | Plant response rating, Barnyardgrass (barnyardgrass; 125 g ai/ha) | Plant response rating, Barnyardgrass (barnyardgrass; 250 g ai/ha) | other results |
| --- | --- | --- | --- | --- | --- | --- | --- | --- | --- | --- | --- | --- | --- | --- | --- | --- | --- | --- | --- | --- | --- |
| O=C1NCC(c2ccc(Cl)c(Cl)c2)C1C(=O)Nc1ccccc1F (racemic) [Compound 14] | 0 | 0 | 0 | 0 | 0 | 0 | 0 | 0 | 10 | 90 | 0 | 0 | 0 | 50 | 70 | 0 | 0 | 0 | 40 | 75 | Plant response rating, Nightshade (nightshade; 62 g ai/ha, scale 0 to 100): 0; Plant response rating, Cocklebur (cocklebur; [1]): 0; Cocklebur plant response rating (cocklebur; [2]): 0; Plant response rating, Cocklebur (cocklebur; [3]): 0 |
| O=C1NCC(c2ccc(F)c(F)c2)C1C(=O)Nc1cccc(F)c1F (centres unmarked) [Compound 17, N-(2,3-difluorophenyl)-4-(3,4-difluorophenyl)-2-oxo-3-pyrrolidinecarboxamide] | 0 | 0 | 0 | 0 | 0 | 0 | 35 | 35 | 95 | 98 | 0 | 0 | 0 | 0 | 0 | 0 | 0 | 80 | 95 | 98 | Plant response rating (galium; 16 g ai/ha): 0; Plant response rating (galium; 31 g ai/ha): 0; Plant response rating (galium; 62 g ai/ha): 0; Plant response rating (galium; 125 g ai/ha): 10; Plant response rating (galium; 250 g ai/ha): 30; Plant response rating, Nightshade (nightshade; 62 g ai/ha, scale 0 to 100): 20; Plant response rating, Nightshade (nightshade; 125 g ai/ha, scale 0 to 100 (0 no effect, 100 complete control)): 40; Plant response rating, Cocklebur (cocklebur; Postemergence, 31 g ai/ha, scale 0 (no effect) to 100 (complete control)): 0; Plant response rating, Cocklebur (cocklebur; Postemergence, 62 g ai/ha, scale 0 to 100 (0 no effect, 100 complete control)): 0; Plant response rating, Cocklebur (cocklebur; Postemergence, 125 g ai/ha, scale 0 to 100 (0 no effect, 100 complete control)): 0; Plant response rating, Cocklebur (cocklebur; Postemergence, 250 g ai/ha, scale 0 to 100 (0 no effect, 100 complete control)): 0; Plant response rating, Cocklebur (cocklebur; [1]): 5; Plant response rating, Cocklebur (cocklebur; Preemergence, 125 g ai/ha, scale 0 to 100 (0 no effect, 100 complete control)): 5; Cocklebur plant response rating (cocklebur; [2]): 0; Plant response rating, Cocklebur (cocklebur; [3]): 5 |
